For this assay, the target named is T1, MMP-12 (Macrophage Elastase) (Homo sapiens, UniProt P39900).
T1 construct: made in house; host or cells: E. coli BL21 (DE3)
Description: P218 quenched fluorescence assay, MMP-12. Type of assay: biochemical. The following applies: human; read-out: Potency Ki vs. MMP-12. An excerpt:
P218 Quenched Fluorescence Assay for MMP Inhibition:
This assay is adapted from the one described by Knight et al., FEBS Letters, 296, 263-266 (1992) for MMP-3 and a related substrate. The rate of hydrolysis of the synthetic substrate H-MCA-Pro-Lys-Pro-Leu-Ala-Leu-DPA-Ala-Arg-NH2 (P218) by the respective MMPs is monitored fluorometrically, using an excitation wavelength of 340 nm and an emission wavelength of 395 nm, in the presence or absence of the test compounds. The substrate is made up initially in 100% DMSO to a concentration of 1×10^−2 M, then diluted in assay buffer to a final concentration of 20 μM. Test compounds (10 mM in DMSO) are diluted in assay buffer at an initial concentration of 0.3-1000 nM. These are diluted to a final concentration in the assay from 0.03 nM to 100 nM. The reaction is initiated by the addition of substrate at a final concentration of 20 μM. The total assay volume in a 96 well microtitre plate is 150 μl, Cleavage of the substrate between the Leu-Ala residues allows the fluorescence of the MCA group to be detected on a fluorometer (Cytofluor II) following excitation at 340 nm and emission at 395 nm. Change in fluorescence is continually monitored for a 40 min period.
The Ki's are calculated using the method described by Williams and Morrison, Methods in Enzymology, 63, 437-467 (1979) to measure Ki apparent for tight binding inhibitors, and is summarised as follows: [I]0/(1−vi/v0)=Ki apparent ×vi/v0+[E]0 [I]0 and [E]0 are inhibitor and enzyme concentrations, and vi/v0 are reaction velocities with/without inhibitor. [I]0 is equal to IC50 when vi is half v0, so that: IC50=0.5×[E]0+Ki apparent
IC50's are determined at each enzyme concentration using Xlfit software. Ki apparent is then determined graphically from the plot of IC50 versus MMP concentration, using the intercepts to estimate Ki apparent. Thus, intercept values at IC50=0 and [E]0=0 are equal to −2×Ki apparent and Ki apparent, respectively. IC50 values are calculated using % inhibition values at each enzyme concentration, ensuring data is taken from the linear part of the reaction rate curves. The Ki can then be calculated from the equation: Ki=Ki apparent/[…] where S=substrate concentration and Km=dissociation constant.
The assay conditions are modified as follows for each of the MMPs used:
MMP-12 (Macrophage Elastase)
[…] is isolated according to the following procedure: Human GenePool cDNA libraries from human lung, spleen, and brain were obtained from Invitrogen (Groningen, The Netherlands). HPLC-purified oligonucleotides were purchased from BioTez (Berlin, Germany), E. coli strain DH5α from Life Technologies (Heidelberg, Germany), strain BL21(DE3) from Novagen (Heidelberg, Germany). Pfu DNA-Polymerase and pBlueScriptII-KS(+) were from Stratagene (Heidelberg, Germany). DNA plasmid and DANN gel isolation kits were purchased from Qiagen (Hilden, Germany). All restriction enzymes and DNA modifying enzymes were ordered from New England Biolabs (Schwalbach, Germany). HiTrapQ (5 ml) was from Pharmacia Biotech (Freiburg, Germany). Vydac C4-RP HPLC columns (214TP54: 300 Å, 5 μm, 4.6×250 mm; 214TP1022: 300 Å, 10 μm, 22×250 mm) were from Promochem (Wesel, Germany). Fluorogenic substrate P218 was purchased from Polypeptide Laboratories (Wolfenbüttel, Germany). Ultrapure urea was purchased from Schwarz-Mann (Cleveland, Ohio). Ready-to-use NuPAGE 10% Bis-Tris Polyacrylamide SDS-PAGE gels and NuPAGE 20×MOPS running buffer were obtained from Novex (Frankfurt/Main, Germany) 10% AMPA and all other chemicals were from Sigma (Deisenhofen, Germany). […]

T1 sequence (P39900 106-470): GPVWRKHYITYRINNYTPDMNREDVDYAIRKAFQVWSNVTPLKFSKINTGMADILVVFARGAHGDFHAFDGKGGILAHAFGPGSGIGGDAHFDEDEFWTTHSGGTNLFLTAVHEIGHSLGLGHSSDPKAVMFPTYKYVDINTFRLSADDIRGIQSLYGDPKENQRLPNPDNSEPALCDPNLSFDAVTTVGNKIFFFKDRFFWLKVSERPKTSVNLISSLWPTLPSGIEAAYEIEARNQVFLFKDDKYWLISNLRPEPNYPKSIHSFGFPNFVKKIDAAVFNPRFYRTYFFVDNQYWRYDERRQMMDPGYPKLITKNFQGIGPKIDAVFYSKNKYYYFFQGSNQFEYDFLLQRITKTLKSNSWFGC

As for `CCOc1ccc(-c2ccc(C(=O)CC(CCN3C(=O)c4ccccc4C3=O)C(=O)O)cc2)cc1` (single isomer, unassigned; (+)) [Example 2, (+)-2-[2-(1,3-Dioxo-1,3-dihydro-2H-isoindol-2-yl)ethyl]-4-(4′-ethoxy[1,1′-biphenyl]-4-yl)-4-oxobutanoic acid], the Ki (usually the dissociation constant of the complex between target and ligand, obtained from inhibition or displacement) worked out at 0.03 nM.
The figure for `O=C(CC(CCN1C(=O)c2ccccc2C1=O)C(=O)O)c1ccc(-c2ccc(Cl)cc2)cc1` (single isomer, unassigned; (+)) [Example 4, (+)-4-(4′-Chloro[1,1′-biphenyl]4-yl)-2-[2-(1,3-dioxo-1,3-dihydro-2H-isoindol-2-yl)ethyl]-4-oxobutanoic acid] is 0.3 nM.

(Values after patent US6900194B1, “Use of substituted 4-biarylbutyric and 5-biarylpentanoic acid derivatives as matrix metalloprotease inhibitors for the treatment of respiratory diseases” (Bayer Aktiengesellschaft, priority 1998, dated 2005).)
